Experimental data from EP3390549B1, “FORMULATIONS CONTAINING A SOLID SOLVENT” (Merck Patent GmbH, priority 2015, dated 2017).

Test: Solubility limit of the solid (second) organic solvent in the liquid (first) organic solvent
Type: physicochemical
Conditions: dissolved at 40°C, stability on standing up to a week at 25°C
Excerpt: The differences between the Hansen Solubility parameter Hd, Hp and Hh of the first and the second solvent can be realized individually or collectively. In a very preferred embodiment, at least two and more preferred all the differences between the Hansen Solubility parameter Hd, Hp and Hh of the first and the second solvent are commonly realized.

[1] = in liquid solvent 3-Phenoxy toluene

Row | SMILES | Solubility limit [1] [%] | Solubility limit (in liquid solvent α-Pinene oxide) [%] | Solubility limit (in liquid solvent β-Caryophyllene) [%]
1 | C=C1CC[C@H]2O[C@]2(C)CC[C@@H]2[C@@H]1CC2(C)C [Caryophyllene oxide] | 55 | 60 | 35
2 | O=C1CCCCCCCCCCCCCCO1 [ω-Pentadecalactone] | >70 |  | 
